Source: BindingDB's records for doi:10.7270/Q2J96B77 (D3R/Abbott, 2020)

Molecular target: Cathepsin S (Homo sapiens, UniProt P25774)
Test: D3R2020

Cathepsin S, sequence (P25774 whole entry): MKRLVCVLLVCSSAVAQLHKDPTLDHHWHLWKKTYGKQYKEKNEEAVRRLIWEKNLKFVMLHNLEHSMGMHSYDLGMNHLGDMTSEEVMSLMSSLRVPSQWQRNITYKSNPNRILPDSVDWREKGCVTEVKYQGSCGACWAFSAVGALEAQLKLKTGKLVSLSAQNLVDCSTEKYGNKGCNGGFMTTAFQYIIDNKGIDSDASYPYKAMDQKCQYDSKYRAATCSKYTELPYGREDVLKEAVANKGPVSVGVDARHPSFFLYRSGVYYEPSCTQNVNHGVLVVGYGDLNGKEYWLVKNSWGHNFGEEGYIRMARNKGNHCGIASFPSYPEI

Row | Structure (SMILES) | IC50 [nM]
1 | Cn1c(=O)n(C2CCN(CCCn3nc(-c4ccc(C(F)(F)F)cc4)c4c3CCN(C(=O)c3c[nH]cn3)C4)CC2)c2ccccc21 [CatS_3] | 55
2 | COc1ccccc1C1CCN(C[C@H](O)Cn2nc(-c3ccc(C(F)(F)F)c(SCCN4CCCCC4)c3)c3c2CCNC3)CC1 [CatS_5] | 200
3 | CC1CCN(CCSc2cc(-c3nn(C[C@@H](O)CN4CCC(N5C[C@@H](O)CC5=O)CC4)c4c3CN(S(C)(=O)=O)CC4)ccc2C(F)(F)F)CC1 [CatS_13] | 58
4 | CC(C)=CC(=O)NCc1cc(-c2nn(CCCN(C)C)c3c2CN(C(=O)CC2CCNCC2)CC3)ccc1C(F)(F)F [CatS_16] | 260
5 | CC(C)=CC(=O)NCc1cc(-c2nn(CCCN3CCOCC3)c3c2CN(C(=O)CC2CCN(C(=O)OC(C)(C)C)CC2)CC3)ccc1C(F)(F)F [CatS_18] | 170
6 | CS(=O)(=O)N1CCc2c(c(-c3ccc(C(F)(F)F)c(CNCc4ccc(F)cc4)c3)nn2CCCN2CCC(C3CCCCC3)CC2)C1 [CatS_26] | 15
7 | CS(=O)(=O)N1CCc2c(c(-c3ccc(Cl)c(C#Cc4ccc(CNCc5ccc(Cl)cc5)cc4)c3)nn2CCCN2CCC(N3CCCC3=O)CC2)C1 [CatS_43] | 18
8 | COC(=O)[C@@H]1Cc2ccc(C#Cc3cc(-c4nn(CCCN5CCOCC5)c5c4CN(S(C)(=O)=O)CC5)ccc3Cl)cc2CN1 [CatS_71] | 65
9 | CS(=O)(=O)N1CCc2c(c(-c3ccc(Cl)c(C#Cc4ccc(CN[C@H](CO)c5ccccc5)cc4)c3)nn2CCCN2CCN(c3ccccn3)CC2)C1 [CatS_75] | 25
10 | CS(=O)(=O)N1CCc2c(c(-c3ccc(Cl)c(C#Cc4ccc(CN[C@@H]5c6ccccc6C[C@@H]5O)cc4)c3)nn2CCCN2CCN(c3ccccc3)CC2)C1 [CatS_77] | 35
11 | CS(=O)(=O)N1CCc2c(c(-c3ccc(Cl)c(C#Cc4cccc(CNCc5ccc(Cl)cc5)c4)c3)nn2CCCN2CCN(c3ccccc3)CC2)C1 [CatS_78] | 65
12 | CCNCc1cc(C#Cc2cc(-c3nn(CCCN4CCCCC4)c4c3CN(C(=O)C(N)=O)CC4)ccc2Cl)ccc1Cl [CatS_82] | 15
13 | NC(=O)N1CCc2c(c(-c3ccc(Cl)c(C#Cc4ccc(Cl)c(CN5CCOCC5)c4)c3)nn2CCCN2CCCCC2)C1 [CatS_84] | 35
14 | CC(C)(O)CNCc1cc(C#Cc2cc(-c3nn(CCCN4CCSCC4)c4c3CN(C(=O)C(N)=O)CC4)ccc2Cl)ccc1Cl [CatS_87] | 25
15 | NC(=O)C(=O)N1CCc2c(c(-c3ccc(Cl)c(C#Cc4ccc(Cl)c(CN[C@@H](CO)c5ccccc5)c4)c3)nn2CCCN2CCSCC2)C1 [CatS_88] | 25
16 | C[C@H]1COCCN1CCCn1nc(-c2ccc(Cl)c(C#Cc3ccc(Cl)c(C(=O)NC[C@@H]4CCCN4)c3)c2)c2c1CCN(C(=O)C(N)=O)C2 [CatS_101] | 25
17 | C[C@H]1COCCN1CCCn1nc(-c2ccc(Cl)c(C#Cc3ccc(Cl)c(CNCc4ccccc4)c3)c2)c2c1CCN(C(=O)C(N)=O)C2 [CatS_102] | 15
18 | C[C@H]1COCCN1CCCn1nc(-c2ccc(Cl)c(C#Cc3ccc(Cl)c(CNCCCO)c3)c2)c2c1CCN(C(N)=O)C2 [CatS_104] | 20
19 | COC(=O)CNCc1cc(C#Cc2cc(-c3nn(CCCN4CCOC[C@@H]4C)c4c3CN(C(N)=O)CC4)ccc2Cl)ccc1Cl [CatS_109] | 25
20 | NC(=O)N1CCc2c(c(-c3ccc(Cl)c(CCc4ccc(Cl)cc4)c3)nn2C[C@@H](O)CN2CCC(C3CCNCC3)CC2)C1 [CatS_117] | 15
21 | CS(=O)(=O)N1CCc2c(c(-c3ccc(Cl)c(CCCN4CCOCC4)c3)nn2CCCN2CCC(N3CCCC3=O)CC2)C1 [CatS_123] | 1170
22 | CC(=O)NC1CCN(CCCn2nc(-c3ccc(C(F)(F)F)c(SCCO)c3)c3c2CCN(S(C)(=O)=O)C3)CC1 [CatS_132] | 340

The remaining lines, values ahead:

Row | IC50 [nM] | Structure (SMILES)
23 | 74 | CC1(C)CCN(C[C@H](O)Cn2nc(-c3ccc(C(F)(F)F)c(CNCc4ccc(F)cc4)c3)c3c2CCN(S(C)(=O)=O)C3)CC1 [CatS_8]
24 | 160 | CC(=O)N1CCc2c(c(-c3ccc(C(F)(F)F)c(SCC(=O)N4CCCC4)c3)nn2C[C@H](O)CN2CCC(C(C)(C)O)CC2)C1 [CatS_11]
25 | 30 | CC(C)(C)C1CCN(CCCn2nc(-c3ccc(C(F)(F)F)c(CNCc4ccc(F)cc4)c3)c3c2CCN(S(C)(=O)=O)C3)CC1 [CatS_12]
26 | 64 | CS(=O)(=O)N1CCc2c(c(-c3ccc(Cl)c(C#Cc4ccc(CNCc5ccc(Cl)cc5)cc4)c3)nn2CCCN2CCN(C3CC3)CC2)C1 [CatS_17]
27 | 95 | O=C(CO)N1CCc2c(c(-c3ccc(Cl)c(C#Cc4ccc(CNCc5ccc(Cl)cc5)cc4)c3)nn2CCCN2CCSCC2)C1 [CatS_40]
28 | 37 | CC(=O)NC1CCN(CCCn2nc(-c3ccc(Cl)c(C#Cc4ccc5c(c4)CNCC5)c3)c3c2CCN(S(C)(=O)=O)C3)CC1 [CatS_50]
29 | 95 | CS(=O)(=O)N1CCc2c(c(-c3ccc(Cl)c(C#Cc4ccc(CNCC(F)(F)F)cc4)c3)nn2CCCN2CCC(N3CCCC3=O)CC2)C1 [CatS_56]
30 | 110 | CS(=O)(=O)N1CCc2c(c(-c3ccc(Cl)c(C#Cc4ccc(C=O)cc4)c3)nn2CCCN2CCOCC2)C1 [CatS_64]
31 | 72 | CN(Cc1ccc(Cl)cc1)Cc1ccc(C#Cc2cc(-c3nn(CCCN4CCN(c5ccccc5)CC4)c4c3CN(S(C)(=O)=O)CC4)ccc2Cl)cc1 [CatS_76]
32 | 98 | NC(=O)N1CCc2c(c(-c3ccc(Cl)c(C#Cc4ccc(CN[C@@H]5CCCc6ccccc65)cc4)c3)nn2CCCN2CCOCC2)C1 [CatS_80]
33 | 25 | NC(=O)C(=O)N1CCc2c(c(-c3ccc(Cl)c(C#Cc4ccc(Cl)c(C(=O)N[C@@H](CO)c5ccccc5)c4)c3)nn2CCCN2CCSCC2)C1 [CatS_89]
34 | 35 | C[C@H]1COCCN1CCCn1nc(-c2ccc(Cl)c(CCc3ccc(CNCc4ccc(Cl)cc4)cc3)c2)c2c1CCN(C(=O)C(N)=O)C2 [CatS_95]
35 | 76 | C[C@H]1COCCN1CCCn1nc(-c2ccc(Cl)c(C#Cc3ccc(CNCc4ccc(Cl)cc4)cc3)c2)c2c1CCN(S(C)(=O)=O)C2 [CatS_98]
36 | 45 | C[C@H]1COCCN1CCCn1nc(-c2ccc(Cl)c(C#Cc3ccc(C(=O)NCCN4CCOCC4)cc3)c2)c2c1CCN(C(=O)C(N)=O)C2 [CatS_100]
37 | 35 | CNCCCNC(=O)c1ccc(C#Cc2cc(-c3nn(CCCN4CCOC[C@@H]4C)c4c3CN(C(=O)C(N)=O)CC4)ccc2Cl)cc1 [CatS_111]
38 | 25 | CC(C)(C)OC(=O)N1CCC(C2CCN(C[C@H](O)Cn3nc(-c4ccc(Cl)c(CCc5ccc(Cl)cc5)c4)c4c3CCN(C(N)=O)C4)CC2)CC1 [CatS_121]
39 | 240 | CC(C)CCNCc1cc(-c2nn(CCCN3CCC(N4CCCC4=O)CC3)c3c2CN(S(C)(=O)=O)CC3)ccc1C(F)(F)F [CatS_126]
40 | 85 | CS(=O)(=O)N1CCc2c(c(-c3ccc(C(F)(F)F)c(SCC(=O)N4CCC[C@@H]4C(N)=O)c3)nn2CCCN2CCC(N3CCCC3=O)CC2)C1 [CatS_129]
41 | 310 | CC(=O)N1CCN(CCCn2nc(-c3ccc(C(F)(F)F)c(SCC(=O)N4CCOCC4)c3)c3c2CCN(S(C)(=O)=O)C3)CC1 [CatS_131]
